Values joined by “and” are separate entries in the source; they are usually repeats but may differ in a detail not shown here. Identical values can stand only once.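 Compound exposure: 48 hours, 5 concentrations, 96-well plates. GI50: concentration for 50% inhibition of growth. TGI is the concentration that stops growth completely.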 Where a SMILES comes first, the peptide text is derived from it. The star is where a group is joined. Boc = CC(C)(C)OC(=O)*
Key:
Assay in all cases: inhibition of tumour cell growth, NCI panel, 48 h
[1] = tested on: NCI-H460 lung
[2] = tested on: SW-620 colon
[3] = tested on: HOP-92 NSCLC
[4] = tested on: OVCAR-5 ovarian
[5] = tested on: A549 NSCLC
[6] = tested on: HOP-62 NSCLC
[7] = tested on: HT29 colon
[8] = tested on: UO-31 renal
[9] = tested on: SNB-19 CNS
[10] = tested on: A498 renal

Compound	TGI [1]	TGI [2]	TGI [3]	TGI [4]	TGI [5]	TGI [6]	TGI [7]	TGI [8]	TGI [9]	GI50 [1]	GI50 [2]	GI50 [3]	GI50 [4]	GI50 [10]	TGI [10]	GI50 [5]	GI50 [7]	GI50 [8]	GI50 [9]	GI50 [6]
O=C(CNS(=O)(=O)Cc1ccccc1)NNc1ccccc1	> 100 µM	> 100 µM	> 100 µM	> 100 µM	> 100 µM	> 100 µM	> 100 µM	> 100 µM	> 100 µM											
C#Cc1nc(Nc2cc(C)[nH]n2)c2ccccc2n1	1.43 µM	1.3 µM	1.25 µM	0.995 µM	2.24 µM		11.3 µM	0.792 µM	81.1 µM	0.346 µM	0.327 µM	0.293 µM	0.332 µM	0.139 µM	0.3 µM	0.394 µM	0.356 µM	0.222 µM	2.27 µM	
[N-]=[N+]=N/C1=C/CCCCC(=O)C1	> 100 µM	> 100 µM	> 100 µM	> 100 µM	> 100 µM	> 100 µM	> 100 µM	> 100 µM	> 100 µM											
O=C1c2cc3c(cc2-c2c1c1cc(Cl)c(Cl)cc1c(=O)n2C[C@H](O)CO)OCO3	0.0268 µM	2.08 µM		0.955 µM	0.253 µM	0.0326 µM			2.79 µM	< 0.01 µM	< 0.01 µM		0.0184 µM	< 0.01 µM	0.032 µM	< 0.01 µM			< 0.01 µM	< 0.01 µM
O=C(Nc1ccc(Cl)c(C(F)(F)F)c1)c1ccc(NC2=C(Cl)C(=O)N(Cc3ccccc3)C2=O)cc1	42.3 µM		14.7 µM		34.8 µM	46.1 µM	> 100 µM		> 100 µM	7.04 µM		4.34 µM				17 µM	7.47 µM		29.2 µM	22.4 µM
C[C@]12CCC(=O)C=C1CC[C@@H]1C2CC[C@]2(C)Nc3[nH]ncc3CC12 (stereo partly specified)	> 100 µM	> 100 µM		> 100 µM	> 100 µM	> 100 µM	> 100 µM	> 100 µM							> 100 µM					
COC12OCCN(C)C1=CC(=O)C1=NNC(C)C12 (stereo unspecified)	> 100 µM	> 100 µM	> 100 µM		> 100 µM		> 100 µM	> 100 µM							> 100 µM					
CCN(CC)CCSc1c2ccccc2nc2c(OC)ccc(OC)c12	36.4 µM		7.57 µM	48.2 µM	50.1 µM	> 70.2 µM	23.1 µM	33.9 µM	> 100 µM						32.5 µM					
COC(=O)C1=C(C(=O)OC)C2=S(SC3=C2CCCC3)S1 (stereo unspecified)	> 100 µM	13 µM	40.3 µM	93.6 µM	> 100 µM	> 100 µM	87.8 µM	> 100 µM	> 100 µM											
COC(=O)C(C)NC(=O)C(CCSC)NC(=O)C(Cc1ccccc1)NC(=O)OC(C)(C)C (stereo not drawn) (Boc-Phe-Met-Ala-OMe; configuration not given here)	> 100 µM	37.2 µg/mL and > 100 µM	> 100 µM	> 100 µM	> 100 µM	> 100 µM	> 100 µM	> 100 µM	> 100 µM	40.6 µg/mL	18.2 µg/mL		31.6 µg/mL			35.7 µg/mL				
COc1ccc(-c2cc(/C=C/C(=O)c3ccc(OC)c(OC)c3)[nH]n2)cc1	4.34 µM	3.59 µM		4.09 µM	5.95 µM	6.17 µM	3.45 µM	2.44 µM	5.28 µM	1.64 µM	1.35 µM		1.65 µM	1.42 µM	3.55 µM	1.88 µM	1.55 µM	1.17 µM	1.88 µM	2.35 µM
CCOC(=O)c1ccc(N=Nc2cc(C(=O)OCC)ccc2O)cc1	> 100 µM	> 100 µM	> 100 µM		> 100 µM	> 100 µM	> 100 µM	> 100 µM							> 100 µM					
CCOC(=O)c1c(-c2ccc(OC)cc2)c(C#N)c2c(C#N)c(N)nn2c1N	30.9 µM	> 100 µM		> 100 µM	> 100 µM	22.1 µM	> 100 µM	90 µM	22.5 µM	3.67 µM	5.62 µM		5.65 µM	1.73 µM	7.88 µM	5.06 µM	3.98 µM	3.49 µM	4.01 µM	3.32 µM
O=C1CCC(=O)c2c1c(O)c1ccncc1c2O	30.7 µM	35.8 µM	38.1 µM	38.2 µM	43.5 µM	69 µM	21.3 µM	31.4 µM	89.2 µM											
Cc1cc(N(CCCNc2ccnc3cc(Cl)ccc23)Cc2ccc3c(c2)OCO3)nc(N2CCOCC2)n1	14.1 µM	38.2 µM		22.3 µM			0.695 µM		> 100 µM	0.318 µM	0.306 µM		0.29 µM				0.247 µM		0.325 µM	
O=C(/C=C/C=C/c1ccccc1)c1ccccc1	49.5 µM	30.3 µM	39.1 µM	28.8 µM	42.7 µM		30.8 µM	38.2 µM	44.4 µM						31.5 µM					
COc1ccc(-c2nnc(N3CCN(C(=O)CN4CCN(c5ccccc5)CC4)CC3)nc2-c2ccc(OC)cc2)cc1	> 100 µM	> 100 µM	24 µM	> 100 µM	> 100 µM	42.7 µM		> 100 µM	77.3 µM	4.2 µM	5.26 µM	3.49 µM	> 100 µM	3 µM	19.1 µM	4.85 µM		1.91 µM	12.8 µM	13 µM
Cn1cc(-c2csc(-c3c[nH]c4ccc(Br)cc34)n2)c2cnccc21	3.74 µM	3.46 µM	8.37 µM		11.5 µM	13.9 µM			> 100 µM	1.92 µM	1.81 µM	2.98 µM		12.6 µM	> 100 µM	2.81 µM			3.67 µM	3.17 µM
O=c1[nH]c2ccc(O)cc2o1	> 100 µM	> 100 µM		> 100 µM	> 100 µM	> 100 µM	> 100 µM	> 100 µM	> 100 µM						> 100 µM					

— PubChem BioAssay (NCI)
